From patent US20160075653A1, “NEMATICIDAL N-(PHENYLCYCLOALKYL)CARBOXAMIDES AND N-(PHENYLCYCLOALKYL)THIOCARBOXAMIDES” (BAYER CROPSCIENCE AKTIENGESELLSCHAFT, priority 2013, published 2016)

Experiment: Measurement of log P values by HPLC on reversed phase columns (methods [a] pH 2.3, [b] pH 2.7, [c] pH 7.8)
Format: physicochemical
Settings: HPLC on reversed phase column, method [b], pH 2.7
How it was run: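 Determined per EEC Directive 79/831 Annex V.A8 by reversed-phase HPLC, 10-95% acetonitrile gradient: [a] pH 2.3, 0.1% phosphoric acid; [b] LC-MS, pH 2.7, 0.1% formic acid; [c] LC-MS, pH 7.8, 0.001 molar ammonium hydrogen carbonate. Calibrated with C3-C16 alkan-2-ones by retention-time interpolation.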

SMILES | logP
Cc1nc(C(F)(F)F)c(C(=O)N[C@@H]2CC[C@@H]2c2cccc(F)c2C(F)(F)F)s1 (relative stereo) [Example 626] | 3.28^[b]
O=C(N[C@@H]1CC[C@H]1c1cccc(F)c1C(F)(F)F)c1sccc1I (relative stereo) [Example 627] | 4.02^[b]
O=C(N[C@@H]1CC[C@@H]1c1cccc(F)c1C(F)(F)F)c1sccc1I (relative stereo) [Example 628] | 3.65^[b]
O=C(N[C@@H]1CC[C@H]1c1cccc(F)c1C(F)(F)F)c1ccccc1[N+](=O)[O-] (relative stereo) [Example 629] | 3.18^[b]
O=C(N[C@@H]1CC[C@H]1c1cccc(F)c1C(F)(F)F)c1ccccc1Br (relative stereo) [Example 632] | 3.57^[b]
Cc1nc(C(F)(F)F)c(C(=O)N[C@@H]2CC[C@H]2c2ccccc2C(F)(F)F)s1 (relative stereo) [Example 633] | 3.49^[b]
Cc1nc(C(F)(F)F)c(C(=O)N[C@@H]2CC[C@@H]2c2ccccc2C(F)(F)F)s1 (relative stereo) [Example 634] | 3.34^[b]
O=C(N[C@@H]1CC[C@H]1c1ccccc1C(F)(F)F)c1sccc1I (relative stereo) [Example 635] | 3.99^[b]
O=C(N[C@@H]1CC[C@@H]1c1ccccc1C(F)(F)F)c1sccc1I (relative stereo) [Example 636] | 3.83^[b]
O=C(N[C@@H]1CC[C@H]1c1ccccc1C(F)(F)F)c1ccccc1[N+](=O)[O-] (relative stereo) [Example 637] | 3.13^[b]
O=C(N[C@@H]1CC[C@H]1c1cccc(F)c1C(F)(F)F)c1c(F)cccc1F (relative stereo) [Example 640] | 3.36^[b]
Cn1cc(C(=O)N[C@@H]2CC[C@@H]2c2cccc(F)c2C(F)(F)F)c(C(F)F)n1 (relative stereo) [Example 643] | 2.75^[b]
Cn1cc(C(=O)N[C@@H]2CC[C@H]2c2cccc(F)c2C(F)(F)F)c(C(F)F)n1 (relative stereo) [Example 644] | 2.99^[b]
O=C(N[C@@H]1CC[C@H]1c1ccc(Br)cc1C(F)(F)F)c1ccccc1C(F)(F)F (relative stereo) [Example 655] | 4.26^[b]
O=C(N[C@@H]1CC[C@@H]1c1ccc(Br)cc1C(F)(F)F)c1ccccc1C(F)(F)F (relative stereo) [Example 656] | 4.02^[b]
O=C(N[C@@H]1CC[C@@H]1c1ccc(Br)cc1C(F)(F)F)c1cccnc1C(F)(F)F (relative stereo) [Example 657] | 3.52^[b]
O=C(N[C@@H]1CC[C@H]1c1ccc(Br)cc1C(F)(F)F)c1cccnc1C(F)(F)F (relative stereo) [Example 658] | 3.76^[b]
O=C(N[C@@H]1CC[C@H]1c1cccc(F)c1C(F)(F)F)c1cccnc1 (relative stereo) [Example 664] | 2.38^[b]
O=C(N[C@@H]1CC[C@H]1c1ccc(Cl)cc1C(F)(F)F)c1ccccc1I (relative stereo) [Example 677] | 4.20^[b]
O=C(N[C@@H]1CC[C@@H]1c1ccc(Cl)cc1C(F)(F)F)c1ccccc1I (relative stereo) [Example 678] | 3.90^[b]
O=C(N[C@@H]1CC[C@H]1c1ccc(Cl)cc1C(F)(F)F)c1ccccc1 (relative stereo) [Example 679] | 3.87^[b]
O=C(N[C@@H]1CC[C@@H]1c1ccc(Cl)cc1C(F)(F)F)c1ccccc1 (relative stereo) [Example 680] | 3.51^[b]
O=C(N[C@@H]1CC[C@H]1c1ccc(Cl)cc1C(F)(F)F)c1c(F)cccc1F (relative stereo) [Example 701] | 3.75^[b]
O=C(N[C@@H]1CC[C@@H]1c1ccc(Cl)cc1C(F)(F)F)c1c(F)cccc1F (relative stereo) [Example 702] | 3.52^[b]
O=C(N[C@@H]1CC[C@H]1c1ccc(Cl)cc1C(F)(F)F)c1ccccc1C(F)(F)F (relative stereo) [Example 703] | 4.10^[b]
O=C(N[C@@H]1CC[C@@H]1c1ccc(Cl)cc1C(F)(F)F)c1ccccc1C(F)(F)F (relative stereo) [Example 704] | 3.84^[b]
O=C(N[C@@H]1CC[C@H]1c1ccc(Cl)cc1C(F)(F)F)c1ccccc1[N+](=O)[O-] (relative stereo) [Example 712] | 3.61^[b]
O=C(N[C@@H]1CC[C@@H]1c1ccc(Cl)cc1C(F)(F)F)c1ccccc1[N+](=O)[O-] (relative stereo) [Example 713] | 3.36^[b]

The remaining lines, values ahead:

logP | SMILES
3.10^[b] | O=C(N[C@@H]1CC[C@H]1c1cccc(F)c1C(F)(F)F)c1nccnc1Cl (relative stereo) [Example 646]
2.86^[b] | O=C(N[C@@H]1CC[C@H]1c1cccc(F)c1C(F)(F)F)c1cccnc1Cl (relative stereo) [Example 648]
2.72^[b] | N#Cc1ccccc1C(=O)N[C@@H]1C[C@@H]1c1ccc(Cl)cc1Cl (relative stereo) [Example 650]
3.72^[b] | O=C(N[C@@H]1CC[C@@H]1c1ccc(Br)cc1C(F)(F)F)c1nccnc1C(F)(F)F (relative stereo) [Example 659]
3.97^[b] | O=C(N[C@@H]1CC[C@H]1c1ccc(Br)cc1C(F)(F)F)c1nccnc1C(F)(F)F (relative stereo) [Example 660]
3.19^[b] | O=C(N[C@@H]1CC[C@@H]1c1ccc(Cl)cc1Cl)c1ccccc1[N+](=O)[O-] (relative stereo) [Example 661]
2.58^[b] | O=C(N[C@@H]1CC[C@H]1c1ccc(Cl)cc1Cl)c1cccnc1 (relative stereo) [Example 662]
2.84^[b] | O=C(N[C@@H]1CC[C@@H]1c1ccc(Cl)cc1Cl)c1cccnc1Cl (relative stereo) [Example 663]
4.55^[b] | O=C(N[C@@H]1CC[C@H]1c1ccc(Cl)cc1C(F)(F)F)c1ccc(Cl)cc1Cl (relative stereo) [Example 665]
3.75^[b] | O=C(N[C@@H]1CC[C@@H]1c1ccc(Cl)cc1C(F)(F)F)c1ccccc1Cl (relative stereo) [Example 666]
4.33^[b] | O=C(N[C@@H]1CC[C@@H]1c1ccc(Cl)cc1C(F)(F)F)c1ncc(C(F)(F)F)cc1Cl (relative stereo) [Example 667]
3.91^[b] | Cc1nc(C(F)(F)F)c(C(=O)N[C@@H]2CC[C@H]2c2ccc(Cl)cc2Cl)s1 (relative stereo) [Example 668]
3.58^[b] | Cc1nc(C(F)(F)F)c(C(=O)N[C@@H]2CC[C@@H]2c2ccc(Cl)cc2Cl)s1 (relative stereo) [Example 669]
4.51^[b] | O=C(N[C@@H]1CC[C@H]1c1ccc(Cl)cc1Cl)c1sccc1I (relative stereo) [Example 670]
4.20^[b] | O=C(N[C@@H]1CC[C@@H]1c1ccc(Cl)cc1Cl)c1sccc1I (relative stereo) [Example 671]
3.47^[b] | O=C(N[C@@H]1CC[C@H]1c1ccc(Cl)cc1Cl)c1ccccc1[N+](=O)[O-] (relative stereo) [Example 672]

logP | SMILES
2.23^[b] | O=C(N[C@@H]1CC[C@@H]1c1ccc(Cl)cc1Cl)c1cccnc1 (relative stereo) [Example 673]
3.16^[b] | O=C(N[C@@H]1CC[C@H]1c1ccc(Cl)cc1Cl)c1cccnc1Cl (relative stereo) [Example 674]
3.43^[b] | O=C(N[C@@H]1CC[C@H]1c1ccc(Cl)cc1Cl)c1nccnc1Cl (relative stereo) [Example 675]
3.05^[b] | O=C(N[C@@H]1CC[C@@H]1c1ccc(Cl)cc1Cl)c1nccnc1Cl (relative stereo) [Example 676]
4.01^[b] | O=C(N[C@@H]1CC[C@H]1c1ccc(Cl)cc1C(F)(F)F)c1ccccc1Cl (relative stereo) [Example 697]
3.84^[b] | O=C(N[C@@H]1CC[C@H]1c1ccc(Cl)cc1C(F)(F)F)c1ncccc1Cl (relative stereo) [Example 698]
3.49^[b] | O=C(N[C@@H]1CC[C@@H]1c1ccc(Cl)cc1C(F)(F)F)c1ncccc1Cl (relative stereo) [Example 699]
4.65^[b] | O=C(N[C@@H]1CC[C@H]1c1ccc(Cl)cc1C(F)(F)F)c1ncc(C(F)(F)F)cc1Cl (relative stereo) [Example 700]
4.27^[b] | O=C(N[C@@H]1CC[C@@H]1c1ccc(Cl)cc1C(F)(F)F)c1ccc(Cl)cc1Cl (relative stereo) [Example 705]
4.43^[b] | O=C(N[C@@H]1CC[C@H]1c1ccc(Cl)cc1C(F)(F)F)c1ccc(Cl)cc1 (relative stereo) [Example 706]
4.04^[b] | O=C(N[C@@H]1CC[C@@H]1c1ccc(Cl)cc1C(F)(F)F)c1ccc(Cl)cc1 (relative stereo) [Example 707]
4.46^[b] | O=C(N[C@@H]1CC[C@H]1c1ccc(Cl)cc1C(F)(F)F)c1cccc(Cl)c1 (relative stereo) [Example 708]
4.05^[b] | O=C(N[C@@H]1CC[C@@H]1c1ccc(Cl)cc1C(F)(F)F)c1cccc(Cl)c1 (relative stereo) [Example 709]
2.50^[b] | O=C(N[C@@H]1CC[C@@H]1c1ccc(Cl)cc1C(F)(F)F)c1cccnc1 (relative stereo) [Example 714]
3.33^[b] | O=C(N[C@@H]1CC[C@H]1c1ccc(Cl)cc1C(F)(F)F)c1cccnc1Cl (relative stereo) [Example 715]
3.56^[b] | O=C(N[C@@H]1CC[C@H]1c1ccc(Cl)cc1C(F)(F)F)c1nccnc1Cl (relative stereo) [Example 716]

Same assay, conditions: HPLC on reversed phase column, method [c], pH 7.8

SMILES | logP
O=C(N[C@@H]1CC[C@H]1c1ccc(Br)cc1C(F)(F)F)c1ccccc1C(F)(F)F (relative stereo) [Example 655] | 4.19^[c];
O=C(N[C@@H]1CC[C@@H]1c1ccc(Br)cc1C(F)(F)F)c1ccccc1C(F)(F)F (relative stereo) [Example 656] | 3.94^[c];
O=C(N[C@@H]1CC[C@@H]1c1ccc(Br)cc1C(F)(F)F)c1cccnc1C(F)(F)F (relative stereo) [Example 657] | 3.42^[c];
O=C(N[C@@H]1CC[C@H]1c1ccc(Br)cc1C(F)(F)F)c1cccnc1C(F)(F)F (relative stereo) [Example 658] | 3.66^[c];

More lines, now with the values ahead:

logP | SMILES
2.70^[c]; | N#Cc1ccccc1C(=O)N[C@@H]1C[C@@H]1c1ccc(Cl)cc1Cl (relative stereo) [Example 650]
3.62^[c]; | O=C(N[C@@H]1CC[C@@H]1c1ccc(Br)cc1C(F)(F)F)c1nccnc1C(F)(F)F (relative stereo) [Example 659]
3.87^[c]; | O=C(N[C@@H]1CC[C@H]1c1ccc(Br)cc1C(F)(F)F)c1nccnc1C(F)(F)F (relative stereo) [Example 660]

Same assay, conditions: HPLC on reversed phase columns, method [b], pH 2.7

logP | SMILES
3.24^[b] | O=C(N[C@@H]1CC[C@@H]1c1ccc(Cl)cc1C(F)(F)F)c1nccnc1Cl (relative stereo) [Example 717]
